# PMC6773697, “Antileukemic activity of novel adenosine derivatives” (Scientific Reports, 2019)
# Columns and labels:
# dCK in HL-60 cells = assay: Deoxycytidine kinase activity, HL-60; type: cell-based, human; details: HL-60, 24 h incubation
# Procedure: (§1) Deoxycytidine kinase activity was measured in accordance with the manufacturer’s protocol. The cells, at final concentration were plated at 1 × 10^6 cells per 24-well plates and cultured with the tested compounds for 24 h. Some cells were preincubated with an ATR kinase inhibitor (VE-821) for 1 h at 37 °C before adding the tested compounds. After drug treatment, the cells were washed with PBS and resuspended in an ice-cold cytosol extraction buffer containing 1 mM phenylmethylsulfonyl fluoride (PMSF) and a protease inhibitor cocktail. The cell lysate was centrifuged at 10,000 × g for 30 min at 4 °C. The protein concentration was determined using the Bradford method. The supernatant (cytosolic fraction) was collected and stored at −80 °C. The clarified cytoplasm extracts, dCK standards, and blank control were added to the appropriate microtiter plate wells with a biotin-conjugated polyclonal antibody prepared specifically for dCK. Avidin conjugated to horseradish peroxidase (HRP) was added to each microplate well and incubated. Then, a TMB substrate solution was added to the plate. […] The enzyme-substrate reaction was terminated by addition of a sulfuric acid solution. The color change was measured spectrophotometrically at a wavelength of 450 nm using a microplate reader (BioTek).
# [1] = tested on: leukemic cells (HL-60, MOLT-4, THP-1); assay: XTT cytotoxicity assay, leukemic cells overall; type: cell-based, human; details: for cytotoxicity (in words): XTT, leukemic cell lines
# Procedure: (§2) The cytotoxic activity test with XTT (sodium 3′-[1-(phenylaminocarbonyl)- 3,4-tetrazolium]-bis (4-methoxy-6-nitro) benzene sulfonic acid hydrate) is a colorimetric method for determining the parameters associated with cell viability. The cytotoxicity in HL-60, THP-1, MOLT-4, and HMEC-1 cells was measured by the XTT assay. XTT is reduced to formazan by the mitochondrial respiratory chain oxidoreductase, which is active only in living cells. The formed crystals of formazan are dissolved directly in the medium. The amount of product is proportional to the number of live cells.
# (§3) The IC50 parameter was determined by dividing the mean absorbance values of the drug-treated samples by those of control cells and defined as the drug concentration causing a 50% reduction of cell viability relative to the control. It was calculated using the “Ed50v10(1)” computer application. Cells were plated in 96-well plates at a density of 15 × 10^3 cells in 100 μL culture medium. Drugs were then added at a concentration range of 10 nM–10,000 nM to obtain a final volume of the mixture of 150 μL. Some cells were preincubated with an ATR kinase inhibitor (VE-821) for 1 h at 37 °C before adding the tested compounds. In this case drugs were added at a concentration range of 10 nM–300 nM. For the XTT assay, after 48 h of incubation, the plates were centrifuged at 1,500 rpm for 10 min at 4 °C, the culture medium was removed, and the cells were suspended in 100 mm^3 of HBSS (Hank’s Buffered Salt Solution) containing 140 mM NaCl, 5 mM KCl, 0.8 mM MgCl2, 1.8 mM CaCl2, 1 mM Na2HPO4, 10 mM HEPES (N- (2-hydroxyethyl) -piperazine-N′- (2-ethanesulfonic acid), and 1% glucose at pH 7.4. Then, 50 μL of XTT solution (in PBS) was added to a final concentration of […]. In addition, PMS (phenazine methosulphate) - methyl dibenzo-N-methylpyrazine sulphate (0.383 mg/cm^3) was used, which was combined with XTT solution at a ratio of 1:50. After 4 h of incubation with XTT, absorbance was measured at a wavelength λ = 450 nm and reference wavelength λ = 690 nm with a microplate reader (BioTek, Winooski, VT, USA).
# dCK in MOLT-4 cells = assay: Deoxycytidine kinase activity, MOLT-4; type: cell-based, human; details: MOLT-4, 24 h incubation
# Procedure: as §1
# dCK in THP-1 cells = assay: Deoxycytidine kinase activity, THP-1; type: cell-based, human; details: THP-1, 24 h incubation
# Procedure: as §1
# THP-1 cells [2] = assay: XTT cytotoxicity assay, THP-1; type: cell-based, human; details: Homo sapiens, THP-1; XTT, 48 h incubation, none in the picture
# Procedure: as §2, §3
# HL-60 cells [3] = assay: XTT cytotoxicity assay, HL-60; type: cell-based; details: Homo sapiens, 48 h incubation, none in the picture
# Procedure: as §2, §3
# γH2AX in HL-60 cells = assay: H2AX (phospho S139) In-Cell ELISA, HL-60; type: cell-based, human; details: HL-60, 48 h, versus control cells
# Procedure: The level H2AX protein phosphorylated Ser139 was measured in tested leukemia cells by using of In-Cell ELISA, ICE assay kit. The cells were seeded on 96-well plates (100 × 10^3/well) and 48 h later, incubated with the appropriate compounds. In some experimental variants, cells were preincubated for 1 h with VE-821 (10 µM). The cells were fixed by adding a final concentration of 4% paraformaldehyde solution (10 min, room temperature). After 2 h of Block Solution incubation, cells were treated with a highly specific antibody. A rabbit monoclonal antibody specific to H2AX (phospho S139) was used (at 1:100, 2 h incubation). Next Secondary Antibody Solution (at 1:1000) were added to the cells. The measurements were obtained on a fluorescence plate reader at an excitation wavelength of 680 nm and emission at 694 nm. The cells were PBS washed and 100 µL of Janus Green Stain was added to each well of the plate (5 min., room temperature). The data were collected at excitation wavelength of 750 nm and emission at 800 nm channel (Fluoroskan Cary Eclipse). Antibody signal intensity was normalized to the total amount using Janus Green cell-stain.
# MOLT-4 cells = assay: XTT cytotoxicity assay, MOLT-4; type: cell-based, human; details: Homo sapiens, MOLT-4; XTT, 48 h incubation, none in the picture
# Procedure: as §2, §3
# HMEC-1 cells = assay: XTT cytotoxicity assay, HMEC-1 (normal dermal endothelium); type: cell-based; details: Homo sapiens, 48 h incubation, none in the picture
# Procedure: as §2, §3
# [4] = tested on: caspase-3/7 in HL-60 cells; assay: Caspase 3/7 assay, HL-60; type: cell-based, human; details: HL-60, 48 h
# Procedure: (§4) The activities of caspases-3 and −7 were estimated with CellEvent™ Caspse-3/7 Green Detection Reagent (Thermo Fisher Scientific) according to the manufacturer’s protocol. The cells were seeded on 96-well plates (15 × 10^3/ well) and 24 h later, incubated with the appropriate drugs for 24 h or 48 h. The cells were fixed by adding a final concentration of 4% paraformaldehyde solution (10 min, room temperature). Cells were labeled with CellEvent™Caspase-3/7 Green Detection Reagent (5 µM), followed by Hoechst 33342 (5 µg/ml) for 15 minutes in complete medium3. Caspase-3/7 Green Detection Reagent was diluted into PBS with 5% FBS to avoid fluorescence background. After activation of caspase-3/7 in apoptotic cells, the DEVD peptide was cleaved, enabling the dye to bind DNA, which produced a bright, fluorogenic response with absorption/emission maxima of 502/530 nm according with manufacture protocol. Fluorescence intensity was measured using a Fluoroskan Ascent FL plate reader (Labsystem, Sweden). Cysteine protease activity was expressed as a ratio of fluorescence of the drug-treated samples to the corresponding untreated controls (taken as 100%). In some experimental variants, cells were preincubated for 1 h with VE-821 (10 µM) or Z-FA-FMK (caspas-3 inhibitor, 0.5 µM) to confirm that the fluorescence observed in both control and drug-treated cells was due to the presence of caspase-3/7 in samples. The caspase 3/7 signal was normalized to the Hoechst 33342 staining intensity to account for differences in cell seeding density (description in: Intracellular calcium assay section).
# HL-60 cells [5] = assay: Comet assay with proteinase K post-treatment (DNA-protein cross-links), HL-60; type: cell-based, human; details: HL-60, starting at 2 h of incubation
# Procedure: (§5) Single cell gel electrophoresis (comet assay) was used to detect alkali labile sites, single and double DNA strand breaks, and cross-links induced by genotoxic agents. After electrophoresis and gel staining with 4,6-diamidino-2-phenylindole (DAPI), the released DNA was visible under a fluorescence microscope as a characteristic comet tail. The cells were plated on 24-well plates (20,000 cells/mL) and treated with CLA, CLA-FMOR, CLA-FPIP, or CLA-FPIR at the indicated concentrations for 2, 24, and 48 h at 37 °C. Some cells were preincubated with an ATR kinase inhibitor (VE-821) for 1 h at 37 °C before adding the tested compounds. Next, cells were collected into Eppendorf tubes and rinsed with PBS. Then, cells were suspended in 0.75% low melting point (LMP) agarose dissolved in PBS (pH 7.4) and placed on microscope slides precoated with 0.5% normal melting point (NMP) agarose. Subsequently, the slides were treated with a cooled lysis buffer (2.5 M NaCl, 100 mM EDTA, 10 mM Tris, 1% Triton X-100, pH 9.0) for 1–24 h at 4 °C. Then, slides were placed in developing buffer (300 mM NaOH, 1 mM EDTA) for 20 min. Electrophoresis was performed in […] (30 mM NaOH, 1 mM EDTA) at 29 V and 30 mA for 20 min. The samples were stained with DAPI ([…]). The slides were stored in a wet chamber at 4 °C and analyzed under a fluorescence microscope. Fifty randomly selected cells from each slide were measured using image analysis (Nikon, Japan) attached to a COHU 4910 video camera, which was equipped with a UV-1 filter block consisting of an excitation filter (359 nm) and a barrier filter (461 nm) connected to the image analysis system Lucia-Comet v. 4.51 (Czech Republic)[41]. In the samples preincubated with VE-821, the level of DNA damage associated with the ATR kinase was determined.
# Because cross-links can be undetectable in the alkaline comet assay, a variant of this method including post-treatment with proteinase K (Cat no: P2308) was used. Proteinase K digests peptide bonds, releasing the cross-linked DNA […] the DNA-protein complexes without altering the structure of the DNA-DNA complexes to distinguish them. After lysis, the slides were washed three times in TE buffer (10 mM Tris, pH 10, 1 mM EDTA). The cells were treated with aliquots of proteinase K (60 µL per slide; 1 mg/mL TE buffer) for 1 h at 37 °C in a wet chamber. Further steps of the comet assay were performed as described above.
# THP-1 cells [6] = assay: Comet assay with proteinase K post-treatment (DNA-protein cross-links), THP-1; type: cell-based, human; details: THP-1, 24 h
# Procedure: as §5
# Because cross-links can be undetectable in the alkaline comet assay, a variant of this method including post-treatment with proteinase K (Cat no: P2308) was used. […]
# [7] = tested on: caspase-3/7 in MOLT-4 cells; assay: Caspase 3/7 assay, MOLT-4; type: cell-based, human; details: MOLT-4, 48 h
# Procedure: as §4, with “After activation of caspase-3/7 in apoptotic cells, the DEVD peptide was cleaved, enabling the dye to bind DNA, which produced a bright, fluorogenic response with absorption/emission maxima of 502/530 nm according with manufacture protocol.” left out, “The caspase 3/7 signal was normalized to the Hoechst 33342 staining intensity to account for differences in cell seeding density (description in: Intracellular calcium assay section).” left out
# [8] = tested on: caspase-3/7 in THP-1 cells; assay: Caspase 3/7 assay, THP-1; type: cell-based, human; details: THP-1, 48 h
# Procedure: as §4, with “After activation of caspase-3/7 in apoptotic cells, the DEVD peptide was cleaved, enabling the dye to bind DNA, which produced a bright, fluorogenic response with absorption/emission maxima of 502/530 nm according with manufacture protocol.” left out, “The caspase 3/7 signal was normalized to the Hoechst 33342 staining intensity to account for differences in cell seeding density (description in: Intracellular calcium assay section).” left out
SMILES,IC50 (THP-1 cells [2]) [nM],IC50 (HL-60 cells [3]) [nM],IC50 (MOLT-4 cells) [nM],IC50 (HMEC-1 cells) [nM],cytotoxicity (in words) [1],further results
"CS(=O)(=O)c1ccc(-c2cnc(N)c(C(=O)Nc3ccccc3)n2)cc1 [C+VE-821, reference compound]",–,–,–,–,–,"dCK activity (dCK in HL-60 cells): decreased dCK activity; effect of ATR inhibitor on cytotoxicity of CLA and derivatives ([1]; 10 μM VE-821 preincubation, XTT 48 h): reduces the cytotoxicity of all tested compounds; dCK activity (dCK in MOLT-4 cells): decreased dCK activity; dCK activity (dCK in THP-1 cells): decreased dCK activity"
"Nc1nc(Cl)nc2c1ncn2[C@H]1C[C@H](O)[C@@H](CO)O1 [CLA, cladribine, reference compound]",56,246,103,126,–,increase in γH2AX level (γH2AX in HL-60 cells): ~ 2.4 fold
"CN(C)C=Nc1nc(Cl)nc2c1ncn2[C@H]1C[C@H](O)[C@@H](CO)O1 [CLA-FDMF, [6-deamino-6-(N′,N′-dimethyl formamidine)] cladribine]",220,184,220,412,low cytotoxicity,–
OC[C@H]1O[C@@H](n2cnc3c(N=CN4CCCCCC4)nc(Cl)nc32)C[C@@H]1O [CLA-FHEX],172,647,348,1080,low cytotoxicity,–
CN1CCN(C=Nc2nc(Cl)nc3c2ncn3[C@H]2C[C@H](O)[C@@H](CO)O2)CC1 [CLA-FPAZ],168,190,353,710,low cytotoxicity,–
"OC[C@H]1O[C@@H](n2cnc3c(N=CN4CCCCC4)nc(Cl)nc32)C[C@@H]1O [CLA-FPIP, [6-deamino-6-(N′, N′-1′, 5′-pentamethylene formamidine)] cladribine]",69,133,110,435,high cytotoxic activity,caspase-3/7 level [4]: highest changes; DNA-protein cross-links after proteinase K (HL-60 cells [5]): increased the level of cross-links; DNA damage in the tail after proteinase K (THP-1 cells [6]): increased
"CC(NC(=O)[C@H](Cc1ccccc1)NC(=O)OCc1ccccc1)C(=O)CF (some centres unmarked) [Z-FA-FMK, reference compound]",–,–,–,–,–,caspase-3/7 level [7]: totally prevented caspase activation; caspase-3/7 level [4]: totally prevented caspase activation; caspase-3/7 level [8]: totally prevented caspase activation
